Legend:
[1] = target: Glycogen synthase kinase-3 alpha (Homo sapiens) (UniProt P49840); test: GSK3alpha(h Millipore kinase panel; settings: Compound concentration 1.0 uM
[2] = target: Tyrosine-protein kinase Yes (Homo sapiens) (UniProt P07947); test: Yes(h) Millipore kinase panel; settings: Compound concentration 1.0 uM
[3] = target: Gamma-aminobutyric acid type B receptor subunit 1 (Homo sapiens) (UniProt Q9UBS5); settings: Rattus norvegicus; Compound concentration 10.0 uM
[4] = target: Dual specificity mitogen-activated protein kinase kinase 1 (Homo sapiens) (UniProt Q02750); test: MEK1(h) Millipore kinase panel; settings: Compound concentration 1.0 uM
[5] = target: T1, Muscarinic acetylcholine receptor M1 (Homo sapiens) (UniProt P11229); settings: Compound concentration 10.0 uM
T1 sequence (whole entry): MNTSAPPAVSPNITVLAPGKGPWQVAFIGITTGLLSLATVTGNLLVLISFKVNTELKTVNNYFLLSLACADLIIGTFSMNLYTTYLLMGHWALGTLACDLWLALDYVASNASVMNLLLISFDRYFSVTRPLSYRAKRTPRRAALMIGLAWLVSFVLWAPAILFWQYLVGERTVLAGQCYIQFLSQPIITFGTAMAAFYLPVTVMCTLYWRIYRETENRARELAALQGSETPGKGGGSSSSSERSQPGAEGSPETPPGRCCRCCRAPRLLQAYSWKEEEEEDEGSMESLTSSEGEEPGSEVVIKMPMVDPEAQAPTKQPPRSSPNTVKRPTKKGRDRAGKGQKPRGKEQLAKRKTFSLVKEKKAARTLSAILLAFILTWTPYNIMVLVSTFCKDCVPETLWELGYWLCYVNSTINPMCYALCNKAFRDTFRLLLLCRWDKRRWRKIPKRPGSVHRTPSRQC

[6] = target: Glutamate receptor 2 (Homo sapiens) (UniProt P42262); settings: Rattus norvegicus; Compound concentration 10.0 uM
[7] = target: 3-phosphoinositide-dependent protein kinase 1 (Homo sapiens) (UniProt O15530); test: PDK1(h) Millipore kinase panel; settings: Compound concentration 1.0 uM
[8] = target: Motilin receptor (Homo sapiens) (UniProt O43193); settings: Compound concentration 10.0 uM
[9] = target: Mitogen-activated protein kinase kinase kinase 11 (Homo sapiens) (UniProt Q16584); test: MLK3(h) Millipore kinase panel; settings: Compound concentration 1.0 uM
[10] = target: Interleukin-1 receptor-associated kinase 1 (Homo sapiens) (UniProt P51617); test: IRAK1(h) Millipore kinase panel; settings: Compound concentration 1.0 uM
[11] = target: Phosphorylase b kinase gamma catalytic chain, testis/liver isoform (Homo sapiens) (UniProt P15735); test: PhKgamma2(h) Millipore kinase panel; settings: Compound concentration 1.0 uM
[12] = target: Calcium/calmodulin-dependent protein kinase type 1G (Homo sapiens) (UniProt Q96NX5); test: CaMKIgamma(h) Millipore kinase panel; settings: Compound concentration 1.0 uM
[13] = target: Phosphorylase b kinase gamma catalytic chain, skeletal muscle/heart isoform (Homo sapiens) (UniProt Q16816); test: PhKgamma1(h) Millipore kinase panel; settings: Compound concentration 1.0 uM
[14] = target: Serine/threonine-protein kinase 26 (Homo sapiens) (UniProt Q9P289); test: MST4(h) Millipore kinase panel; settings: Compound concentration 1.0 uM
[15] = target: Muscle, skeletal receptor tyrosine-protein kinase (Homo sapiens) (UniProt O15146); test: MuSK(h) Millipore kinase panel; settings: Compound concentration 1.0 uM
[16] = target: Type-1 angiotensin II receptor (Homo sapiens) (UniProt P30556); settings: Compound concentration 10.0 uM
[17] = target: Serine/threonine-protein kinase Chk1 (Homo sapiens) (UniProt O14757); test: CHK1(h) Millipore kinase panel; settings: Compound concentration 1.0 uM
[18] = target: Serine/threonine-protein kinase Chk2 (Homo sapiens) (UniProt O96017); test: CHK2(h) Millipore kinase panel; settings: Compound concentration 1.0 uM
[19] = target: Homeodomain-interacting protein kinase 2 (Homo sapiens) (UniProt Q9H2X6); test: HIPK2(h) Millipore kinase panel; settings: Compound concentration 1.0 uM
[20] = target: GABA-A receptor; anion channel (Rattus norvegicus) (UniProt O09028+P15431+P18506+P18508+P19969+P20236+P23574+P23576+P28471+P28473+P30191+P62813+P63079+P63138+Q91ZM7+Q9ES14); settings: Compound concentration 10.0 uM
[21] = target: 5-hydroxytryptamine receptor 2C (Homo sapiens) (UniProt P28335); settings: Compound concentration 10.0 uM
[22] = target: Mitogen-activated protein kinase kinase kinase 7 (Homo sapiens) (UniProt O43318); test: TAK1(h) Millipore kinase panel; settings: Compound concentration 1.0 uM
[23] = target: Mitogen-activated protein kinase 9 (Homo sapiens) (UniProt P45984); test: JNK2alpha2(h) Millipore kinase panel; settings: Compound concentration 1.0 uM
[24] = target: Insulin receptor (Homo sapiens) (UniProt P06213); test: IR(h),activated Millipore kinase panel; settings: Compound concentration 1.0 uM
[25] = target: Serine/threonine-protein kinase PAK 3 (Homo sapiens) (UniProt O75914); test: PAK3(h) Millipore kinase panel; settings: Compound concentration 1.0 uM
[26] = target: Serine/threonine-protein kinase DCLK2 (Homo sapiens) (UniProt Q8N568); test: DCAMKL2(h) Millipore kinase panel; settings: Compound concentration 1.0 uM
[27] = target: Serine/threonine-protein kinase 16 (Homo sapiens) (UniProt O75716); test: STK16(h) Millipore kinase panel; settings: Compound concentration 1.0 uM
[28] = target: Sodium-dependent dopamine transporter (Homo sapiens) (UniProt Q01959); settings: Compound concentration 10.0 uM
[29] = target: Death-associated protein kinase 1 (Homo sapiens) (UniProt P53355); test: DAPK1(h) Millipore kinase panel; settings: Compound concentration 1.0 uM
[30] = target: T2, Alpha-2C adrenergic receptor (Homo sapiens) (UniProt P18825); settings: Compound concentration 10.0 uM
T2 sequence (whole entry): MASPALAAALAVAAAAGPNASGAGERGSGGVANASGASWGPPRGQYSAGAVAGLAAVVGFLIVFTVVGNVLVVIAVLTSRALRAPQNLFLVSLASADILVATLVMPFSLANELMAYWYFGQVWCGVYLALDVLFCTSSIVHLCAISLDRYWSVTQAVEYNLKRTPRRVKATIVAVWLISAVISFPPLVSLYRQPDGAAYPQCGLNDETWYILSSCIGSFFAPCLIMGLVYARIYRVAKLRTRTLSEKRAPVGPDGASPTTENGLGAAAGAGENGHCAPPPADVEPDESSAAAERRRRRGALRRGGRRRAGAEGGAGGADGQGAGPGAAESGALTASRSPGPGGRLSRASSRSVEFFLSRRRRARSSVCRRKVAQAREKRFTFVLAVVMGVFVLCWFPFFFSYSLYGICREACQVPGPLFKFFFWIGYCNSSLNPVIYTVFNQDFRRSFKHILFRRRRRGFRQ

[31] = target: Serine/threonine-protein kinase DCLK1 (Homo sapiens) (UniProt O15075); test: DCAMKL1(h) Millipore kinase panel; settings: Compound concentration 1.0 uM
[32] = target: Delta-type opioid receptor (Homo sapiens) (UniProt P41143); settings: Compound concentration 10.0 uM
[33] = target: cGMP-dependent protein kinase 2 (Homo sapiens) (UniProt Q13237); test: PRKG2(h) Millipore kinase panel; settings: Compound concentration 1.0 uM

Measured: inhibition

Chain of Motilin receptor (Homo sapiens) (O43193 whole entry): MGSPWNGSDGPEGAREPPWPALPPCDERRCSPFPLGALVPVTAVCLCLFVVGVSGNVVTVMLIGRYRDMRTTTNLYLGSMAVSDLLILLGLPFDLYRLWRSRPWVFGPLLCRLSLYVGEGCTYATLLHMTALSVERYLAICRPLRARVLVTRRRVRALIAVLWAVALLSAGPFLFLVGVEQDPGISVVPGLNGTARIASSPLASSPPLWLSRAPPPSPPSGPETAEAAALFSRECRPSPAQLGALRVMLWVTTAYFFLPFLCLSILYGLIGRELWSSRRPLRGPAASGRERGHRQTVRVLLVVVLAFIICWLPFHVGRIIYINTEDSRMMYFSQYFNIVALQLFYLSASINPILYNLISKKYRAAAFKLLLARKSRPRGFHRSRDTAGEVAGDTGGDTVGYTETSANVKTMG
Chain of Tyrosine-protein kinase Yes (Homo sapiens) (P07947 2-543 limits assumed): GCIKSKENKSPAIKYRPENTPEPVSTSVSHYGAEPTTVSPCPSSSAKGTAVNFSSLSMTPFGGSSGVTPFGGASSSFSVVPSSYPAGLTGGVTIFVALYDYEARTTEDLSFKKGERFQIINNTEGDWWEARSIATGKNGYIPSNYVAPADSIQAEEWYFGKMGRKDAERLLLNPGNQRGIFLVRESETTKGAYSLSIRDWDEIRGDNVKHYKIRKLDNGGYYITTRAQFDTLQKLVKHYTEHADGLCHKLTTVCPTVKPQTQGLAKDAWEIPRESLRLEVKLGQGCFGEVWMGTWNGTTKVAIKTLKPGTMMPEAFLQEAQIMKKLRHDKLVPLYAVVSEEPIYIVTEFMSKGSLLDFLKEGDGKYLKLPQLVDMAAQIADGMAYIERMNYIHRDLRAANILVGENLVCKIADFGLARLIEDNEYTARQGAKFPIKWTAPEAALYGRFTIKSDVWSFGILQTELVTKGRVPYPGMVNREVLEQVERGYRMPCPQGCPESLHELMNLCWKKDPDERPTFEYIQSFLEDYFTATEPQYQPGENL
Chain of Insulin receptor (Homo sapiens) (P06213 28-758 limits assumed): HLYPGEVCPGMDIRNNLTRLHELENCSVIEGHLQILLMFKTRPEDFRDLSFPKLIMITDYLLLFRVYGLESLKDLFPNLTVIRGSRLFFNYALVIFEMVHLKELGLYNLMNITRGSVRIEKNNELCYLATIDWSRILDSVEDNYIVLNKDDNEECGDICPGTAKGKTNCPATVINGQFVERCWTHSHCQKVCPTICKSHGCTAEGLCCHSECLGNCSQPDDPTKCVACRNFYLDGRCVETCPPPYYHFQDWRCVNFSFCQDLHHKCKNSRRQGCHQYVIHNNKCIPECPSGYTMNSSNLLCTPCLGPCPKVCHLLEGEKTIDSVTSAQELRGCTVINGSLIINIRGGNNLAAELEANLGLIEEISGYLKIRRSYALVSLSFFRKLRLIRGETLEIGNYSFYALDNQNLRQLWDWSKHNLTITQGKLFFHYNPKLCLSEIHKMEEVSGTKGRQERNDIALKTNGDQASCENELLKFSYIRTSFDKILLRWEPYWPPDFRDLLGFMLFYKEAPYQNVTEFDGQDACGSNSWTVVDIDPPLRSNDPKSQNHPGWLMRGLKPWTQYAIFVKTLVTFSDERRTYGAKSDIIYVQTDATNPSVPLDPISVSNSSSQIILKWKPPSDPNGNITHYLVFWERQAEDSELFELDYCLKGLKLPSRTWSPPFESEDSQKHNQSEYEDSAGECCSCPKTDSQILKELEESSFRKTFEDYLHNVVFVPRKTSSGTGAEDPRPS
Chain of Insulin receptor (Homo sapiens) (P06213 763-1382 limits assumed): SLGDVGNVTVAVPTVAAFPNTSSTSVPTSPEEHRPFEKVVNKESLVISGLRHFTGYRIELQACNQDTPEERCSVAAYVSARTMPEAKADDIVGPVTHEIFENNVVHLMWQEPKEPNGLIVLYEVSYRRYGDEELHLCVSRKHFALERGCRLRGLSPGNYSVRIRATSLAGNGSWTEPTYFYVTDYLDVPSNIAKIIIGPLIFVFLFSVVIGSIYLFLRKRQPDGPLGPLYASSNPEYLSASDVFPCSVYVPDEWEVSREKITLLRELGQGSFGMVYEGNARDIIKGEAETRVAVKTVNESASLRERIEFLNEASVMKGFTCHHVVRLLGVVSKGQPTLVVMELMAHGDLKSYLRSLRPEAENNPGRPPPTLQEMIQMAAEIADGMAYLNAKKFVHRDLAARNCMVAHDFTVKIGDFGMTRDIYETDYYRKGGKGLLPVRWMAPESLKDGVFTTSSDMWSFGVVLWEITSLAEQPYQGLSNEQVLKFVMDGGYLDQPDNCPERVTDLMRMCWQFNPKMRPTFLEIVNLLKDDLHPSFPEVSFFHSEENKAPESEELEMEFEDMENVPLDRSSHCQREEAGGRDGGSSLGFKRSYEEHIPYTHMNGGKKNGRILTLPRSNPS
Chain of Phosphorylase b kinase gamma catalytic chain, testis/liver isoform (Homo sapiens) (P15735 whole entry, looked up, canonical isoform): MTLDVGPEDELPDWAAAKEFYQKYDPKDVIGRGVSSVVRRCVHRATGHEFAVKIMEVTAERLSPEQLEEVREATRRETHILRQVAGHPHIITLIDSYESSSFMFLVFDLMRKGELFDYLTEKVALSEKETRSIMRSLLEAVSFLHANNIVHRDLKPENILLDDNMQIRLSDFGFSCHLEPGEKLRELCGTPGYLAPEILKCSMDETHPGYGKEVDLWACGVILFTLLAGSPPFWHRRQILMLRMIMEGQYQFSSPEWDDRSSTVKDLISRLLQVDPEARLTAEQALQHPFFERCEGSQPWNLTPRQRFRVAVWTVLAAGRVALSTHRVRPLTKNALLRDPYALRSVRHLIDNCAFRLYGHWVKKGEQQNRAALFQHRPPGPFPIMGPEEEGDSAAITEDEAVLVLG
Chain of Serine/threonine-protein kinase PAK 3 (Homo sapiens) (O75914 whole entry, looked up): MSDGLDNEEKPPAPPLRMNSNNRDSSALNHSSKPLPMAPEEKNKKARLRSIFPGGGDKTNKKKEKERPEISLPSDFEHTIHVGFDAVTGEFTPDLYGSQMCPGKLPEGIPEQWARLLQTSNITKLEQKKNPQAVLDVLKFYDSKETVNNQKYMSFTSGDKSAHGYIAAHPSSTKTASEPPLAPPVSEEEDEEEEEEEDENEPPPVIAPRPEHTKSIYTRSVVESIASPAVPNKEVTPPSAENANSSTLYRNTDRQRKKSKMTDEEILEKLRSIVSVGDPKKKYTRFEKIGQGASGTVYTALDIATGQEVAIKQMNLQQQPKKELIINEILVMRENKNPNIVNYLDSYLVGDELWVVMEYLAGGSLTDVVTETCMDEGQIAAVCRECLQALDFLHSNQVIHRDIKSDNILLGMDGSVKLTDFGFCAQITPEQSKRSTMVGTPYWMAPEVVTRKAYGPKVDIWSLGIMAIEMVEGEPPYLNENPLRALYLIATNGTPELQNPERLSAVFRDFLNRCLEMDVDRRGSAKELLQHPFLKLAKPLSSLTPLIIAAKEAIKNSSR
Chain of Delta-type opioid receptor (Homo sapiens) (P41143 whole entry): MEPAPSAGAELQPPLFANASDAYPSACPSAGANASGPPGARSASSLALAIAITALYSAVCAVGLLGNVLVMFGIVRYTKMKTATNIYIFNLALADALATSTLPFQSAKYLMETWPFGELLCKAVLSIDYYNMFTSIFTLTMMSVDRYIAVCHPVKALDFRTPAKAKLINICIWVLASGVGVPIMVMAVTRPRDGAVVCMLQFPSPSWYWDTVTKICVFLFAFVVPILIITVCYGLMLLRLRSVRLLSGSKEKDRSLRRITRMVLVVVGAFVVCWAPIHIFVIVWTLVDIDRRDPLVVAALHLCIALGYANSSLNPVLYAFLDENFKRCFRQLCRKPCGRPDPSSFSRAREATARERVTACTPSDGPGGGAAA
Chain of Mitogen-activated protein kinase kinase kinase 11 (Homo sapiens) (Q16584 whole entry, looked up): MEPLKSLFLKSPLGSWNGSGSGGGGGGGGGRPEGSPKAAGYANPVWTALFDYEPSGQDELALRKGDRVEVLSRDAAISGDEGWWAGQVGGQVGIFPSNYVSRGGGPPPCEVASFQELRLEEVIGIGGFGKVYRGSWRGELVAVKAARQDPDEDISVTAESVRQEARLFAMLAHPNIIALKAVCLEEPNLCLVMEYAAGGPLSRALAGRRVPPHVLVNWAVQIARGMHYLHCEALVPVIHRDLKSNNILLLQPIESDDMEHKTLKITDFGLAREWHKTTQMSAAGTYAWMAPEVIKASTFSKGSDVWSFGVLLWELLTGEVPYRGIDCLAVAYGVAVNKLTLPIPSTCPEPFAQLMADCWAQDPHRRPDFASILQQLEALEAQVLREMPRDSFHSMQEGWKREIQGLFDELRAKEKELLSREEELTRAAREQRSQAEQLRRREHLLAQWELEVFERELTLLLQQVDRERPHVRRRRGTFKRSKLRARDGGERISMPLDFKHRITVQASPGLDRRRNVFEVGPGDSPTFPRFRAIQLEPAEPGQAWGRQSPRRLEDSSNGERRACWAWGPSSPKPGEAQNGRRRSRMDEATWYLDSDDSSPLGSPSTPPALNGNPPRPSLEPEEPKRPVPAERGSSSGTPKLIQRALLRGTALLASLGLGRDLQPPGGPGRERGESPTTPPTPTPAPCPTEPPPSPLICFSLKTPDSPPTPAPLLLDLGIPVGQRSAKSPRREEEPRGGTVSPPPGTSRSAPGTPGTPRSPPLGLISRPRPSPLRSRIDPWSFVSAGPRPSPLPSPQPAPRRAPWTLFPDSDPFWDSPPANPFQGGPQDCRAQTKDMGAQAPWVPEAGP
Chain of Serine/threonine-protein kinase 26 (Homo sapiens) (Q9P289 2-416 limits assumed): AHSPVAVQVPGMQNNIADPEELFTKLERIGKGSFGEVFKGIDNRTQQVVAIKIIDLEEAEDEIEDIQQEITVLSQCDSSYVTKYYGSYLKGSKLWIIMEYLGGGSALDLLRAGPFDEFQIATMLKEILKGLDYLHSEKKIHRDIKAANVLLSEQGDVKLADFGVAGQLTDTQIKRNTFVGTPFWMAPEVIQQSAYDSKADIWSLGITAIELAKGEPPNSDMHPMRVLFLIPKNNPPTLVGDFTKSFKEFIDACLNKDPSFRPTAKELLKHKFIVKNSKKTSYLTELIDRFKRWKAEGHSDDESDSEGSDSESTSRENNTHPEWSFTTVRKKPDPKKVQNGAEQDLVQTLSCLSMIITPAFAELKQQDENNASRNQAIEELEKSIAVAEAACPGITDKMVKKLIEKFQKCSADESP

CC[C@@H](Nc1c(C#N)c(-c2ccc(-c3cccc(C)c3F)cc2)nc2cnccc12)C(=O)O [BAY-091]
inactive: [1] 5.47% | [2] -3.76% | [3] 5% | [4] 21.5% | [5] 13% | [6] -4% | [7] -8.72% | [8] -2% | [9] 21.1% | [10] -3.31% | [11] -0.34% | [12] 14.4% | [13] -9.06% | [14] 5.69% | [15] 5.1% | [16] 22% | [17] 4.56% | [18] 5.38% | [19] 0.19% | [20] 29.9% | [21] -9.38% | [22] 7.89% | [23] -1.41% | [24] 9.43% | [25] 4.13% | [26] -2.01% | [27] 9.54% | [28] 29.5% | [29] -3.29% | [30] -6.87% | [31] 13% | [32] 25% | [33] 12.7%

From ChEMBL document CHEMBL4800729 (2021)
